Results taken from patent US7135466B2 (Kirin Beer Kabushiki Kaisha, priority 1999, dated 2006).
Where two headings read alike, the source gives them in different places.

Legend:
PDGF-Ra = target: T1, PDGF-Ra (Homo sapiens, UniProt P16234); experiment: Inhibitory activity against PDGF-Ra phosphorylation by PDGF-AA stimulation using G292; format: cell-based; conditions: for IC50: > means inhibition at indicated concentration not more than 50%, < and << not less than 50%, read-out: PDGF (E) IC50; for inhibition at 0.1 µM: G292, at 100 nM, read-out: PDGF (E) inhibition (%) at 100 nM
T1 construct: host or cells: G-292 human osteosarcoma cells
T1 sequence (P16234 24-1089): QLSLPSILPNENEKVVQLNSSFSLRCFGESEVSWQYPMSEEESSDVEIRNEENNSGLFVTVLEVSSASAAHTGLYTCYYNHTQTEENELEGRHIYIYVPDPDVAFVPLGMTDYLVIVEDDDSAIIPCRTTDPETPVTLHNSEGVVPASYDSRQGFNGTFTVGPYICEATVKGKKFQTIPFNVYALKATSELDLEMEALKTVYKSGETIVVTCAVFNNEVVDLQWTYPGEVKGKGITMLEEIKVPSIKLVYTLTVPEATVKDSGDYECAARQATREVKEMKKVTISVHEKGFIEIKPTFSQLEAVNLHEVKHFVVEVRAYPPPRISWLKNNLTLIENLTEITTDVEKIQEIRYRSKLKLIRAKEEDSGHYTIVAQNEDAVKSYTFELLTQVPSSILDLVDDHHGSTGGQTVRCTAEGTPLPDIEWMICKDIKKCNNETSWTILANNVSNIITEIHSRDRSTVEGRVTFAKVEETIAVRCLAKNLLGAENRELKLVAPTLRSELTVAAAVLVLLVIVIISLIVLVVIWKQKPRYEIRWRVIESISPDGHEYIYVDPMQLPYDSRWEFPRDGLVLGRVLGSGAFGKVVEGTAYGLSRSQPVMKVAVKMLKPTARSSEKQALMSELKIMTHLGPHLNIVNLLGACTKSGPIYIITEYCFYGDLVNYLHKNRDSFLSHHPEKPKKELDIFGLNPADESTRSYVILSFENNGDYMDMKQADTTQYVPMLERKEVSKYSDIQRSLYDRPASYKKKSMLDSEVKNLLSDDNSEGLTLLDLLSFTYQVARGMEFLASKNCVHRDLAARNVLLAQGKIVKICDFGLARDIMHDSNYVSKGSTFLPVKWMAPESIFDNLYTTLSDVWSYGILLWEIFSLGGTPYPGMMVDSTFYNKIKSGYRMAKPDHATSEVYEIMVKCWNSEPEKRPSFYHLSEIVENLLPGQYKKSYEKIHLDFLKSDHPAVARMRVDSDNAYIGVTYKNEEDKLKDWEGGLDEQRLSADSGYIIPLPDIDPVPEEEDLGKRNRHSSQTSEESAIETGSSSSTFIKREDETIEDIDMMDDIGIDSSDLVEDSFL
How it was run: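 G-292 human osteosarcoma cells, serum-starved overnight in 0.1% FBS, were pretreated with compound in DMSO for 1 hr at 37 °C, then stimulated with 50 ng/ml PDGF-AA for 5 min. Lysates were captured on anti-phosphotyrosine PY-20 plates and probed with anti-PDGF-Ra plus HRP secondary; absorbance read at 450 nm.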

c-kit = target: T2, c-kit (Homo sapiens, UniProt P10721); experiment: Inhibitory activity against c-kit autophosphorylation (MO7e cells, h-SCF); format: cell-based; conditions: for inhibition at 1 µM: Mo7e, at 1000 nM; for IC50: MO7e cells, read-out: c-kit IC50
T2 construct: MO7e (human megakaryocytic leukemia cell line) which had been arrested for 20 hr; endogenous in cells; host or cells: MO7e human megakaryocytic leukemia cell line
T2 sequence (P10721 26-976): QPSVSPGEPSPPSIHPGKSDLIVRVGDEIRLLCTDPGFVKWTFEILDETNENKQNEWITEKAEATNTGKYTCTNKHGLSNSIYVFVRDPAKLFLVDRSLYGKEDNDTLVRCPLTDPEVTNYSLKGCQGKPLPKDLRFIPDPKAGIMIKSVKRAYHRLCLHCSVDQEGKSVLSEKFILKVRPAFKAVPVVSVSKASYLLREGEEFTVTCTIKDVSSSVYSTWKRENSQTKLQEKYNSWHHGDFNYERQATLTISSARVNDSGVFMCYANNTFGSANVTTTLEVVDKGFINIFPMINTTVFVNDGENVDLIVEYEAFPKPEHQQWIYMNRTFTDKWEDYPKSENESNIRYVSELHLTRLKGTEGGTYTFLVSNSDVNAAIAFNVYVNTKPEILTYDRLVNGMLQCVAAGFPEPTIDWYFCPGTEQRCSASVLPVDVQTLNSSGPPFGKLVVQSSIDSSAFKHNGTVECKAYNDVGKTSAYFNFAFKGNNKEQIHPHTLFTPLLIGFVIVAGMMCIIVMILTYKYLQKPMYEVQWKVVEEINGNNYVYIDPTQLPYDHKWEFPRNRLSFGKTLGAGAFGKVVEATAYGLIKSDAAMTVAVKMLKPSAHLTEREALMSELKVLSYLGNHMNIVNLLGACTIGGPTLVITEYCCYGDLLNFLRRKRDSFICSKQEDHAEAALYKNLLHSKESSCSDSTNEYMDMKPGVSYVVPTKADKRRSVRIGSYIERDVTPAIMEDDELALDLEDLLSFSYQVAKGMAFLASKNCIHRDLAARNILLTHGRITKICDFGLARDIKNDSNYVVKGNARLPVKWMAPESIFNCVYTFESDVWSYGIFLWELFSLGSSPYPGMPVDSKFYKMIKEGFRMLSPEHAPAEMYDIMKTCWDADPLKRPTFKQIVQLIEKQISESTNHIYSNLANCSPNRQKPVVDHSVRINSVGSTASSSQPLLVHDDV
How it was run: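 Growth-arrested (20 hr) MO7e; cpd in DMSO, 1 hr; h-SCF 50 ng/ml, 5 min; lyse. ELISA: anti-pTyr (PY-20) capture, anti-c-kit 1° Ab, HRP anti-rabbit 2° Ab, A450.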

[1] = figure in parentheses in >100( )
[2] = figure within parentheses in −( ) or >1000( )

| Compound | IC50 (PDGF-Ra) [nM] | IC50 (c-kit; 50 ng/ml h-SCF) [nM] | further results |
| --- | --- | --- | --- |
| CCOCCC(=O)NC(=S)Nc1ccc(Oc2ccnc3cc(OC)c(OC)cc23)c(Cl)c1 [Example 1071, N-{3-Chloro-4-[(6,7-dimethoxy-4-quinolyl)oxy]phenyl}-N′-(3-ethoxypropanoyl)thiourea] | > 100 |  | inhibition at 0.1 µM (PDGF-Ra; [1]): 17%; inhibition at 1 µM (c-kit; figure in parentheses in −( )): 0% |
| CCN(CC)CCNC(=O)Nc1ccc(Oc2ccnc3cc(OC)c(OC)cc23)c(Cl)c1 [Example 651, N-{3-Chloro-4-[(6,7-dimethoxy-4-quinolyl)oxy]phenyl}-N′-[2-(diethylamino)ethyl]urea] | 40 | 808 |  |
| COc1cc2nccc(Oc3ccc(NC(=S)NC(=O)c4ccc(CN5CCOCC5)cc4)cc3)c2cc1OC [Example 1153, N-{4-[(6,7-Dimethoxy-4-quinolyl)oxy]phenyl}-N′-[4-(morpholinomethyl)benzoyl]thiourea] | 43 |  | inhibition at 1 µM (c-kit; figure in parentheses in −( )): 13% |
| CCN(C(=O)OC1CCCCC1)c1ccc(Oc2ncnc3cc(OC)c(OC)cc23)cc1Cl [Example 475, Cyclohexyl N-{2-chloro-4-[(6,7-dimethoxy-4-quinazolinyl)oxy]phenyl}-N-ethylcarbamate] | 15 |  | inhibition at 1 µM (c-kit; [2]): 24% |
| COc1cc2ncnc(Oc3ccc(NC(=O)OCCCOc4cccc(F)c4)cc3)c2cc1OC [Example 150, 3-(3-Fluorophenoxy)propyl N-{4-[(6,7-dimethoxy-4-quinazolinyl)oxy]phenyl}carbamate] |  |  | IC50 (PDGF-Ra; Pharmacological Test Example 1): < 10 nM; IC50 (c-kit; h-SCF 50 ng/ml): 38 nM |
| 3-Morpholinopropyl N-{4-[(6,7-dimethoxy-4-quinolyl)oxy]-2,5-dimethylphenyl}carbamate [Example 423] | < 10 | 102 |  |
| COc1cc2nccc(Oc3ccc(NC(=O)OCc4ccccn4)c(C)c3C)c2cc1OC [Example 431, 2-Pyridylmethyl N-{4-[(6,7-dimethoxy-4-quinolyl)oxy]-2,3-dimethylphenyl}carbamate] | 17 | 43 |  |
| COc1cc2nccc(Oc3ccc(NC(=S)NC(=O)c4ccccc4)c(Cl)c3)c2cc1OC [Example 1107, N-Benzoyl-N′-{2-chloro-4-[(6,7-dimethoxy-4-quinolyl)oxy]phenyl}thiourea] | > 100 |  | inhibition at 0.1 µM (PDGF-Ra; [1]): 46%; inhibition at 1 µM (c-kit; figure in parentheses in −( )): 24% |
| COc1cc(Oc2ncnc3cc(OC)c(OC)cc23)ccc1NC(=O)OCCc1ccccn1 [Example 501, 2-(2-Pyridyl)ethyl N-{4-[(6,7-dimethoxy-4-quinazolinyl)oxy]-2-methoxyphenyl}carbamate] | 11 | 56 |  |
| CCN(CCNC(=O)Nc1ccc(Oc2ccnc3cc(OC)c(OC)cc23)cc1Cl)c1cccc(C)c1 [Example 669, N-{2-Chloro-4-[(6,7-dimethoxy-4-quinolyl)oxy]phenyl}-N′-[2-(ethyl-3-methylanilino)ethyl]urea] | 23 | 134 |  |
| COc1cccc(C(C)OC(=O)Nc2ccc(Oc3ccnc4cc(OC)c(OC)cc34)c(C)c2C)c1 (centres unmarked) [Example 53, 1-(3-Methoxyphenyl)ethyl N-{4-[(6,7-dimethoxy-4-quinolyl)oxy]-2,3-dimethylphenyl}carbamate] |  |  | IC50 (PDGF-Ra; Pharmacological Test Example 1): < 10 nM; IC50 (c-kit; h-SCF 50 ng/ml): 480 nM |
| COc1cccc(CNC(=O)COc2ccc(Oc3ncnc4cc(OC)c(OC)cc34)cc2)c1 [Example 801, N1-(3-Methoxybenzyl)-2-{4-[(6,7-dimethoxy-4-quinazolinyl)oxy]phenoxy}acetamide] | 13 | 70 |  |
| COc1cc2ncnc(Oc3ccc(NC(=S)NC(=O)Cc4ccccc4)cc3)c2cc1OC [Example 1148, N-{4-[(6,7-Dimethoxy-4-quinazolinyl)oxy]phenyl}-N′-(2-phenylacetyl)thiourea] | < 10 |  | IC50 (c-kit; h-SCF stimulation): 42 nM |
| COc1cc2nccc(Oc3ccc(NC(=O)N[C@H]4CCN(Cc5ccccc5)C4)cc3)c2cc1OC [Example 565, N-[(3S)-1-Benzyltetrahydro-1H-3-pyrrolyl]-N′-{4-[(6,7-dimethoxy-4-quinolyl)oxy]phenyl}urea] | 46 | 170 |  |
| COc1cc2nccc(Oc3ccc(NC(=O)Sc4ccc(Cl)cc4C)cc3)c2cc1OC [Example 176, 4-Chloro-2-methylphenyl{4-[(6,7-dimethoxy-4-quinolyl)oxy]anilino}methanethioate] |  |  | IC50 (PDGF-Ra; Pharmacological Test Example 1): 20 nM; IC50 (c-kit; h-SCF 50 ng/ml): < 30 nM |
| COc1cc2nccc(Oc3cc(C)c(NC(=O)OCCCOc4cccc(F)c4)cc3C)c2cc1OC [Example 149, 3-(3-Fluorophenoxy)propyl N-{4-[(6,7-dimethoxy-4-quinolyl)oxy]-2,5-dimethylphenyl}carbamate] |  |  | IC50 (PDGF-Ra; Pharmacological Test Example 1): 19 nM; IC50 (c-kit; h-SCF 50 ng/ml): 49 nM |

| Compound | IC50 (PDGF-Ra) [nM] | IC50 (c-kit; 50 ng/ml h-SCF) [nM] | further results |
| --- | --- | --- | --- |
| CCOC(=O)N1CCC(NC(=O)Nc2ccc(Oc3ccnc4cc(OC)c(OC)cc34)cc2)CC1 [Example 561, Ethyl 4-[({4-[(6,7-dimethoxy-4-quinolyl)oxy]anilino}carbonyl)amino]-1-piperidine-carboxylate] | < 10 | 54 |  |
| COc1cc2nccc(Oc3ccc(OCCCOc4ccccc4F)cc3)c2cc1OC [Example 796, 4-{4-[3-(2-Fluorophenoxy)propoxy]phenoxy}-6,7-dimethoxyquinoline] | 15 | 394 |  |
| COc1cc2nccc(Oc3ccc(NC(=O)NC4CCN(Cc5ccccc5C)C4)c(C)c3C)c2cc1OC (centres unmarked) [Example 572, N-{4-[(6,7-Dimethoxy-4-quinolyl)oxy]-2,3-dimethylphenyl}-N′-[1-(2-methylbenzyl)tetrahydro-1H-3-pyrrolyl]urea] | 64 | 262 |  |
| COc1cc2nccc(Oc3ccc(NC(=S)NC(=O)C4(C)CCCCC4)cc3Cl)c2cc1OC [Example 1192, N-{3-Chloro-4-[(6,7-dimethoxy-4-quinolyl)oxy]phenyl}-N′-[(1-methylcyclohexyl)carbonyl]thiourea] | 19 |  | IC50 (c-kit; h-SCF stimulation): 672 nM |
| COc1ccccc1COC(=O)N(C)c1ccc(Oc2ncnc3cc(OC)c(OC)cc23)cc1 [Example 490, 2-Methoxybenzyl N-{4-[(6,7-dimethoxy-4-quinazolinyl)oxy]phenyl}-N-methylcarbamate] | 21 | 261 |  |
| COc1cc2nccc(Oc3ccc(NC(=S)NC(=O)N(C)c4ccccc4)cc3)c2cc1OC [Example 1046, N-{4-[(6,7-Dimethoxy-4-quinolyl)oxy]phenyl}-{[(methylanilino)carbonyl]amino}methanethioamide] | 38 |  | IC50 (c-kit; h-SCF stimulation): 202 nM |
| CCCCCCOC(=O)Nc1ccc(Oc2ccnc3cc(OC)c(OC)cc23)cc1 [Example 256, Hexyl N-{4-[(6,7-dimethoxy-4-quinolyl)oxy]phenyl}carbamate] |  |  | IC50 (PDGF-Ra; Pharmacological Test Example 1): < 3 nM; IC50 (c-kit; h-SCF 50 ng/ml): 15 nM |
| COc1cc2nccc(Oc3ccc(NC(=O)OCCCc4ccccc4)c(C)c3C)c2cc1OC [Example 378, 3-Phenylpropyl N-{4-[(6,7-dimethoxy-4-quinolyl)oxy]-2,3-dimethylphenyl}carbamate] |  |  | IC50 (PDGF-Ra; Pharmacological Test Example 1): 14 nM; IC50 (c-kit; h-SCF 50 ng/ml): 92 nM |
| COc1cc2nccc(Oc3ccc(NC(=O)OCc4ccc(C(F)(F)F)cc4)cc3)c2cc1OC [Example 21, 4-(Trifluoromethyl)benzyl N-{4-[(6,7-dimethoxy-4-quinolyl)oxy]phenyl}carbamate] |  |  | IC50 (PDGF-Ra; Pharmacological Test Example 1): < 10 nM; IC50 (c-kit; h-SCF 50 ng/ml): 135 nM |
| COc1cc2nccc(Oc3ccc(NC(=O)OCCCSc4ccc(C)cc4)cc3)c2cc1OC [Example 37, 3-[(4-Methylphenyl)sulfanyl)propyl N-{4-[(6,7-dimethoxy-4-quinolyl)oxy]phenyl}carbamate] |  |  | IC50 (PDGF-Ra; Pharmacological Test Example 1): < 10 nM; IC50 (c-kit; h-SCF 50 ng/ml): < 30 nM |
| COc1cc2nccc(Oc3ccc(NC(=S)NC(=O)c4ccc(-c5ccccc5)cc4)c(F)c3)c2cc1OC [Example 1125, N-(4-Phenylbenzoyl)-N′-{4-[(6,7-dimethoxy-4-quinolyl)oxy]-2-fluorophenyl}thiourea] | > 100 |  | inhibition at 0.1 µM (PDGF-Ra; [1]): 22%; inhibition at 1 µM (c-kit; figure in parentheses in −( )): 8% |
| COc1cc2nccc(Oc3ccc(NC(=O)OCCSc4ccc(C)cc4)cc3)c2cc1OC [Example 137, 3-[(4-Methylphenyl)sulfanyl]ethyl N-{4-[(dimethoxy-4-quinolyl)oxy]-phenyl}carbamate] |  |  | IC50 (PDGF-Ra; Pharmacological Test Example 1): < 10 nM; IC50 (c-kit; h-SCF 50 ng/ml): 233 nM |
| COc1cc2ncnc(Oc3ccc(OCCCOc4ccccc4OC)cc3)c2cc1OC [Example 810, 6,7-Dimethoxy-4-{4-[3-(2-methoxyphenoxy)propoxy]phenoxy}quinazoline] | 18 |  | IC50 (c-kit; h-SCF stimulation): 269 nM |
| COc1cc2nccc(Oc3ccc(NC(=O)NCCN(C(C)C)C(C)C)c(C)c3C)c2cc1OC [Example 655, N-[2-(Diisopropylamino)ethyl]-N′-{4-[(6,7-dimethoxy-4-quinolyl)oxy]-2,3-dimethylphenyl}urea] | 43 |  | inhibition at 1 µM (c-kit; [2]): 43% |
| COc1cc2ncnc(Oc3ccc(NC(=S)NCCCN4CCCC4)cc3)c2cc1OC [Example 537, N-{4-[(6,7-Dimethoxy-4-quinazolinyl)oxy]phenyl}-N′-[3-(1-pyrrolidinyl)propyl]thiourea] | > 100 |  | inhibition at 0.1 µM (PDGF-Ra; figure within parentheses in >100( )): 34%; inhibition at 1 µM (c-kit; [2]): 34% |
| COc1cc2ncnc(Oc3ccc(NC(=S)NC(=O)C(C)Oc4ccccc4Cl)cc3)c2cc1OC (centres unmarked) [Example 1144, N-[2-(2-Chlorophenoxy)propanoyl]-N′-{4-[(6,7-dimethoxy-4-quinazolinyl)oxy]phenyl}thiourea] | 28 |  | inhibition at 1 µM (c-kit; figure in parentheses in −( )): 30% |
